Measurements: patent US4746736A, “Carbapenem antibiotics” (priority 1986, dated 1988)
In brackets after ≈: the same amount, converted by molar mass. Like-named read-outs stand apart in the source and are kept apart here.

Key:
Format in all cases: cell-based
[1] = system: S. aureus A-9606 (Pen-res.); test: In vitro MIC by tube dilution, S. aureus A-9606 (Pen-res.); details: Staphylococcus aureus, S. aureus A-9606 (Pen-res); read-out: MIC
[2] = system: S. aureus A-9537; test: In vitro MIC by tube dilution, S. aureus A-9537; details: Staphylococcus aureus, read-out: MIC
[3] = system: S. pyogenes A9604; test: In vitro MIC by tube dilution, S. pyogenes A9604; details: Streptococcus pyogenes, A9604, S. pyogenes A-9604; read-out: MIC
[4] = system: E. cloacae A-9659; test: In vitro MIC by tube dilution, E. cloacae A-9659; details: Enterobacter cloacae, A9659, E. cloacae A-9659; read-out: MIC
[5] = system: P. rettgeri A22424; test: In vitro MIC by tube dilution, P. rettgeri A22424; details: Providencia rettgeri, A22424, P. rettgeri A22424; read-out: MIC
[6] = system: P. morganii A15153; test: In vitro MIC by tube dilution, P. morganii (M. morganii) A15153; details: Morganella morganii, A15153, M. morganii A15153; read-out: MIC
[7] = system: P. aeruginosa A-9843A; test: In vitro MIC by tube dilution, P. aeruginosa A-9843A; details: Pseudomonas aeruginosa, A9843A, P. aeruginosa A-9843a; read-out: MIC
[8] = system: S. pneumoniae A-9585; test: In vitro MIC by tube dilution, S. pneumoniae A-9585; details: Streptococcus pneumoniae, A9585, S. pneumoniae A-9585; read-out: MIC
[9] = system: K. pneumoniae A20468; test: In vitro MIC by tube dilution, K. pneumoniae A20468; details: Klebsiella pneumoniae, A20468, K. pneumoniae A20468; read-out: MIC
[10] = system: E. coli A20341-1; test: In vitro MIC by tube dilution, E. coli A20341-1; details: Escherichia coli, A203411, read-out: MIC
[11] = system: E. coli A15119; test: In vitro MIC by tube dilution, E. coli A15119; details: Escherichia coli, read-out: MIC
[12] = system: K. pneumoniae A-9664; test: In vitro MIC by tube dilution, K. pneumoniae A-9664; details: Klebsiella pneumoniae, A9664, read-out: MIC
[13] = system: P. mirabilis A-9900; test: In vitro MIC by tube dilution, P. mirabilis A-9900; details: Proteus mirabilis, A9900, P. mirabilis A-9900; read-out: MIC
[14] = system: S. marcescens A20019; test: In vitro MIC by tube dilution, S. marcescens A20019; details: Serratia marcescens, read-out: MIC
[15] = system: E. cloacae A-9656; test: In vitro MIC by tube dilution, E. cloacae A-9656; details: Enterobacter cloacae, A9656, E. cloacae A-9656; read-out: MIC
[16] = A9537, S. aureus A-9537 +50% serum
[17] = A9537, S. aureus A-9537, no serum

C[C@@H](O)[C@H]1C(=O)N2C(C(=O)[O-])=C(SCc3n[n+](C)nn3C)C[C@H]12 [Example 20, (1'R,5R,6S) 3-[(1,3-dimethyl-5-tetrazolium)-methylthio]-6-(1-hydroxyethyl)-7-oxo-1-azabicyclo[3.2.0]hept-2-ene-2-carboxylate]
MIC [1]: > 125 µg/mL
MIC [2, 16]: 2 µg/mL (≈ 5.89 µM)
MIC [3]: 0.13 µg/mL (≈ 0.383 µM)
MIC [4]: 8 µg/mL (≈ 23.6 µM)
MIC [5]: 8 µg/mL (≈ 23.6 µM)
MIC [6]: 8 µg/mL (≈ 23.6 µM)
MIC [7]: 32 µg/mL (≈ 94.3 µM)
MIC [8]: 0.06 µg/mL (≈ 0.177 µM)

C[C@@H](O)[C@H]1C(=O)N2C(C(=O)[O-])=C(SCc3cs[n+](C)n3)C[C@H]12 [Example 16, (5R,6S) 6-(1R-hydroxyethyl)-3-(2-methyl-1,2,3-thiadiazolium-4-ylmethylthio)-7-oxo-1-azabicyclo[3.2.0]hept-2-ene-2-carboxylate]
MIC [1]: 0.016 µg/mL (≈ 0.0469 µM)
MIC [9]: 0.06 µg/mL (≈ 0.176 µM)
MIC [2, 16]: 0.03 µg/mL (≈ 0.0879 µM)
MIC [2, 17]: 0.008 µg/mL (≈ 0.0234 µM)
MIC [3]: 0.002 µg/mL (≈ 0.00586 µM)
MIC [10]: 0.016 µg/mL (≈ 0.0469 µM)
MIC [4]: 0.06 µg/mL (≈ 0.176 µM)
MIC ([11]; A15119, E. coli A15119): 0.016 µg/mL (≈ 0.0469 µM)
MIC [7]: 0.25 µg/mL (≈ 0.732 µM)
MIC [12]: 0.06 µg/mL (≈ 0.176 µM)
MIC [8]: 0.002 µg/mL (≈ 0.00586 µM)
MIC [13]: 0.06 µg/mL (≈ 0.176 µM)
MIC [14]: 0.06 µg/mL (≈ 0.176 µM)
MIC [15]: 0.06 µg/mL (≈ 0.176 µM)

C[C@@H](O)[C@H]1C(=O)N2C(C(=O)[O-])=C(SCc3cccc[n+]3C)C[C@H]12 [Example 4, 3-(N-Methylpyridine-2-yl-methanethio)-6α-[1-(R)-hydroxyethyl]-7-oxo-1-azabicyclo(3.2.0)hept-2-ene-2-carboxylate]
MIC [1]: 0.016 µg/mL (≈ 0.0478 µM)
MIC [2, 17]: 0.008 µg/mL (≈ 0.0239 µM)
MIC [10]: 0.016 µg/mL (≈ 0.0478 µM)
MIC ([11]; A15119, E. coli A15119): 0.016 µg/mL (≈ 0.0478 µM)
MIC [6]: 0.016 µg/mL (≈ 0.0478 µM)
MIC [7]: 2 µg/mL (≈ 5.98 µM)
MIC [8]: 0.002 µg/mL (≈ 0.00598 µM)

Cc1scc(CSC2=C(C(=O)[O-])N3C(=O)[C@H]([C@@H](C)O)[C@H]3C2)[n+]1C [Example 8, 3-(2-Methyl-N-methylthiazole-4-yl-methanethio)-6α-[1-(R)-hydroxyethyl]-7-oxo-1-azabicyclo(3.2.0)hept-ene-2-carboxylate]
MIC [1]: 0.03 µg/mL (≈ 0.0846 µM)
MIC [9]: 0.13 µg/mL (≈ 0.367 µM)
MIC [2, 16]: 0.03 µg/mL (≈ 0.0846 µM)
MIC [2, 17]: 0.008 µg/mL (≈ 0.0226 µM)
MIC [3]: 0.002 µg/mL (≈ 0.00564 µM)
MIC [10]: 0.03 µg/mL (≈ 0.0846 µM)
MIC [4]: 0.13 µg/mL (≈ 0.367 µM)
MIC ([11]; A15119, E. coli A15119): 0.016 µg/mL (≈ 0.0451 µM)
MIC [5]: 0.13 µg/mL (≈ 0.367 µM)
MIC [7]: 1 µg/mL (≈ 2.82 µM)
MIC [12]: 0.03 µg/mL (≈ 0.0846 µM)
MIC [8]: 0.002 µg/mL (≈ 0.00564 µM)
MIC [13]: 0.13 µg/mL (≈ 0.367 µM)
MIC [14]: 0.06 µg/mL (≈ 0.169 µM)
MIC [15]: 0.06 µg/mL (≈ 0.169 µM)

C[C@@H](O)[C@H]1C(=O)N2C(C(=O)[O-])=C(SCc3cn(C)n[n+]3CC(=O)O)C[C@H]12 [Example 17, Potassium 3-[5-(1-carboxylatomethyl-3-methyl-1,2,3-triazolium)-methanethio]-6α-[1-(R)-hydroxyethyl]-7-oxo-1-azabicyclo[3.2.0]hept-2-ene-2-carboxylate]
MIC [3]: 0.016 µg/mL
MIC [7]: > 63 µg/mL
MIC [12]: 0.13 µg/mL
MIC [8]: 0.016 µg/mL
MIC [13]: 0.13 µg/mL
MIC [14]: 0.13 µg/mL

C[C@@H](O)[C@H]1C(=O)N2C(C(=O)[O-])=C(SCc3ccc[n+](C)c3)C[C@H]12 [Example 3, 3-(N-Methylpyridine-3-yl-methanethio)-6α-[1-(R)-hydroxyethyl]-7-oxo-1-azabicyclo(3.2.0)hept-2-ene-2-carboxylate]
MIC [1]: 0.016 µg/mL (≈ 0.0478 µM)
MIC [9]: 0.06 µg/mL (≈ 0.179 µM)
MIC [2, 16]: 0.016 µg/mL (≈ 0.0478 µM)
MIC [2, 17]: 0.016 µg/mL (≈ 0.0478 µM)
MIC [3]: 0.002 µg/mL (≈ 0.00598 µM)
MIC [10]: 0.016 µg/mL (≈ 0.0478 µM)
MIC [4]: 0.13 µg/mL (≈ 0.389 µM)
MIC ([11]; E. coli A15119): 0.03 µg/mL (≈ 0.0897 µM)
MIC [6]: 0.13 µg/mL (≈ 0.389 µM)
MIC [7]: 2 µg/mL (≈ 5.98 µM)
MIC [12]: 0.06 µg/mL (≈ 0.179 µM)
MIC [8]: 0.002 µg/mL (≈ 0.00598 µM)
MIC [13]: 0.13 µg/mL (≈ 0.389 µM)
MIC [14]: 0.016 µg/mL (≈ 0.0478 µM)
MIC [15]: 0.13 µg/mL (≈ 0.389 µM)

Cc1sc(CSC2=C(C(=O)[O-])N3C(=O)[C@H]([C@@H](C)O)[C@H]3C2)c(C)[n+]1C [Example 10, 3-(2,3,4,-Trimethylthiazole-5-yl-methanethio)-6α[1-(R)-hydroxyethyl]-7-oxo-1-azabicyclo(3.2.0)hept-2-ene-2-carboxylate]
MIC [1]: 0.008 µg/mL (≈ 0.0217 µM)
MIC [9]: 0.13 µg/mL (≈ 0.353 µM)
MIC [2, 17]: 0.008 µg/mL (≈ 0.0217 µM)
MIC [10]: 0.008 µg/mL (≈ 0.0217 µM)
MIC [4]: 0.13 µg/mL (≈ 0.353 µM)
MIC ([11]; A15119, E. coli A15119): 0.016 µg/mL (≈ 0.0434 µM)
MIC [5]: 0.13 µg/mL (≈ 0.353 µM)
MIC [7]: 32 µg/mL (≈ 86.8 µM)
MIC [13]: 0.13 µg/mL (≈ 0.353 µM)
MIC [15]: 0.13 µg/mL (≈ 0.353 µM)
